Assay results: ChEMBL document CHEMBL6121008, “New series of 3-pyridyl-1,3-thiazoles: In vitro and in vivo anti-Trypanosomatidae profile, in vitro and in silico mechanism of action approach” (Eur J Med Chem, 2025)
The source made the active and inactive calls. The calls are words filed in the database; no cut-off is given here.

How the values were obtained:
Trypanosoma cruzi [1] = assay: (§1) Antiparasitic activity against trypomastigote form of Trypanosoma cruzi Tulahuen expressing Escherichia coli beta-galactosidase infected in mouse L929 cells assessed as reduction in parasitic growth using CPRG as substrate pretreated with compound for 96 hrs followed by substrate addition and measured after 16 to 20 hrs by Spectrophotometric analysis; assay type: functional, organism-based
[2] = Cytotoxicity against mouse L929 cells assessed as inhibition of cell viability incubated for 96 hrs by MTT assay; assay type: toxicity, cell-based
Trypanosoma cruzi [3] = assay: as §1, with “amastigote” for “trypomastigote”; assay type: functional, organism-based
Trypanosoma cruzi [4] = assay: Antiparasitic activity against trypomastigote form of Trypanosoma cruzi Y assessed as appearance of twisted bodies by Electron micrographic analysis; assay type: functional, organism-based
RAW264.7 [5] = assay: Immunomodulatory activity in mouse RAW264.7 cells assessed as decrease in IL-10 production at 1 to 4 times IC50 incubated for 24 to 144 hrs by flow cytometric analysis; assay type: functional, cell-based; settings: time 24-144 hrs
Trypanosoma cruzi [6] = assay: Antiparasitic activity against Trypanosoma cruzi Y trypomastigotes infected in male Swiss mouse assessed as reduction in parasitemia at 100 mg/kg/day, po pre-infected with parasite followed by compound addition and measured at 1 to 5 days post-infection by microscopic analysis; assay type: functional, organism-based; settings: time 1-5 day
Trypanosoma cruzi [7] = assay: Antiparasitic activity against trypomastigote form of Trypanosoma cruzi Y assessed as appearance of membrane rupture by Electron micrographic analysis; assay type: functional, organism-based
[8] = Selectivity index, ratio of CC50 for mouse L929 cells to IC50 for antiparasitic activity against trypomastigote and amastigote form of Trypanosoma cruzi Tulahuen expressing Escherichia coli beta-galactosidase infected in mouse L929 cells; assay type: toxicity; settings: read-out: Selectivity Index
[9] = Toxicity in male Swiss mouse infected with Trypanosoma cruzi Y trypomastigotes assessed as mortality at 100 mg/kg/day, po pre-infected with parasite followed by compound addition and measured after 5 to 9 days relative to control; assay type: organism-based; settings: in vivo, time 5-9 day; for Activity: po, 100 mg/kg
RAW264.7 [10] = assay: Immunomodulatory activity in mouse RAW264.7 cells assessed as increase in IL-6 production at 1 to 4 times IC50 incubated for 24 to 144 hrs by flow cytometric analysis; assay type: functional, cell-based; settings: time 24-144 hrs
[11] = Selectivity index, ratio of CC50 for mouse RAW264.7 cells to IC50 for antiparasitic activity against Leishmania infantum MHOM/MA/67/ITMAP-263 promastigote expressing Escherichia coli beta-galactosidase; assay type: toxicity; settings: read-out: Selectivity Index
Leishmania amazonensis [12] = assay: (§2) Antiparasitic activity against Leishmania amazonensis WHOM/00 LTB 0016 promastigote expressing Escherichia coli beta-galactosidase assessed as reduction in parasitic growth using CPRG as substrate preincubated with compound for 72 hrs followed by substrate addition and measured after 10 mins by Spectrophotometric analysis; assay type: functional, organism-based
Leishmania infantum [13] = assay: as §2, with “infantum MHOM/MA/67/ITMAP-263” for “amazonensis WHOM/00 LTB 0016”; assay type: functional, organism-based; settings: Leishmania infantum, MHOM/MA/67/ITMAP-263; read-out: IC50
RAW264.7 [14] = assay: Immunomodulatory activity in mouse RAW264.7 cells assessed as decrease in TNF production at 1 to 4 times IC50 incubated for 24 to 144 hrs by flow cytometric analysis; assay type: functional, cell-based; settings: time 24-144 hrs
Mitochondrial membrane = assay: Induction of mitochondrial membrane depolarization in trypomastigote form of Trypanosoma cruzi Y at IC50 incubated for 24 hrs by Rhodamine 123 staining based flow cytometric analysis; assay type: cell membranes
[15] = Selectivity index, ratio of CC50 for mouse RAW264.7 cells to IC50 for antiparasitic activity against Leishmania amazonensis amastigote expressing Escherichia coli beta-galactosidase infected in mouse RAW264.7 cells; assay type: toxicity; settings: read-out: Selectivity Index
[16] = Acute toxicity in female Swiss-Webster mouse infected with Trypanosoma cruzi Y assessed as mortality at 5 to 200 mg/kg, po measured after 48 hrs; assay type: organism-based; settings: in vivo, dose 5-200 mg/kg
[17] = Selectivity index, ratio of CC50 for mouse RAW264.7 cells to IC50 for antiparasitic activity against Leishmania infantum amastigote expressing Escherichia coli beta-galactosidase infected in mouse RAW264.7 cells; assay type: toxicity; settings: read-out: Selectivity Index
[18] = Acute toxicity in male Swiss-Webster mouse infected with Trypanosoma cruzi Y assessed as mortality at 5 to 200 mg/kg, po measured after 48 hrs; assay type: organism-based; settings: in vivo, dose 5-200 mg/kg
Cell membrane = assay: Induction of cell membrane damage in trypomastigote form of Trypanosoma cruzi Y assessed as decrease in red fluorescence intensity incubated for 24 hrs by acridine orange staining based flow cytometric analysis; assay type: subcellular
Leishmania amazonensis [19] = assay: as §2, with “amastigote” for “WHOM/00 LTB 0016 promastigote”, “beta-galactosidase infected in mouse RAW264.7 cells” for “beta-galactosidase”, “24” for “72”, “2 to 6 hrs” for “10 mins”; assay type: functional, organism-based; settings: Leishmania amazonensis, RAW264.7; read-out: IC50
Leishmania infantum [20] = assay: Antiparasitic activity against Leishmania infantum amastigote expressing Escherichia coli beta-galactosidase infected in mouse RAW264.7 cells assessed as reduction in parasitic growth using CPRG as substrate preincubated with compound for 24 hrs followed by substrate addition and measured after 2 to 6 hrs by Spectrophotometric analysis; assay type: functional, organism-based; settings: Leishmania infantum, RAW264.7; read-out: IC50
[21] = Selectivity index, ratio of CC50 for mouse RAW264.7 cells to IC50 for antiparasitic activity against Leishmania amazonensis WHOM/00 LTB 0016 promastigote expressing Escherichia coli beta-galactosidase; assay type: toxicity; settings: read-out: Selectivity Index
Trypanosoma cruzi [22] = assay: Antiparasitic activity against trypomastigote form of Trypanosoma cruzi Y assessed as appearance of swollen cells with cytoplasmic content leakage by Electron micrographic analysis; assay type: functional, organism-based
[23] = Acute toxicity in male Swiss-Webster mouse infected with Trypanosoma cruzi Y assessed as side effects at 5 to 200 mg/kg, po measured after 48 hrs; assay type: organism-based; settings: in vivo, dose 5-200 mg/kg
[24] = Cytotoxicity against mouse RAW264.7 cells assessed as inhibition of cell viability incubated for 48 hrs by MTT assay; assay type: toxicity, cell-based
Trypanosoma cruzi [25] = assay: Antiparasitic activity against trypomastigote form of Trypanosoma cruzi Y assessed as appearance of ruptured cells with cytoplasmic content leakage by Electron micrographic analysis; assay type: functional, organism-based
[26] = Acute toxicity in female Swiss-Webster mouse infected with Trypanosoma cruzi Y assessed as side effects at 5 to 200 mg/kg, po measured after 48 hrs; assay type: organism-based; settings: in vivo, dose 5-200 mg/kg
Trypanosoma cruzi [27] = assay: Antiparasitic activity against trypomastigote form of Trypanosoma cruzi Y assessed as appearance of filamentous structures scattered across the membrane by Electron micrographic analysis; assay type: functional, organism-based
Trypanosoma cruzi [28] = assay: Antiparasitic activity against trypomastigote form of Trypanosoma cruzi Y assessed as presence of bubbles by Electron micrographic analysis; assay type: functional, organism-based

SMILES	IC50 (Trypanosoma cruzi [1])	CC50 at 96 h [2]	IC50 (Trypanosoma cruzi [3])	Activity (Trypanosoma cruzi [4])	Activity (RAW264.7 [5])	Activity (Trypanosoma cruzi [6])	selectivity ratio [8]	Activity (RAW264.7 [10])	selectivity ratio [11]	IC50 (Leishmania infantum [13])	Activity (RAW264.7 [14])	Activity (Mitochondrial membrane)	selectivity ratio [15]	Activity [16]	selectivity ratio [17]	Activity [18]	Activity (Cell membrane)	IC50 (Leishmania amazonensis [19])	IC50 (Leishmania infantum [20])	Activity (Trypanosoma cruzi [22])	other results
O=C(Cn1ccnc1[N+](=O)[O-])NCc1ccccc1 [BENZNIDAZOLE]	4.2 µM	2070 µM	4.2 µM	Active	Active	Active	494	Active	–	–	–	–	–	–	–	–	–	–	–	–	Activity (Trypanosoma cruzi [7]): Active; mortality ([9]; male, Swiss, read-out: Activity): 100%
C/C(=N\Nc1nc(-c2ccccc2)cs1)c1cccnc1	0.4 µM	212 µM	0.4 µM	Dose-dependent-effect	Active	inactive	531	Active	3.4	5.4 µM	Active	Active	1.9	Non-toxic	0.2	Non-toxic	Dose-dependent-effect	9.9 µM	103 µM	Dose-dependent-effect	IC50 (Leishmania amazonensis [12]; Leishmania amazonensis, WHOM/00 LTB 0016, read-out: IC50): 128 µM; selectivity ratio [21]: 0.1; Activity [23]: Non-toxic; CC50 at 48 h [24]: 18.3 µM; Activity (Trypanosoma cruzi [25]): Dose-dependent-effect; Activity [26]: Non-toxic; Activity [9]: Toxic; Activity (Trypanosoma cruzi [27]): Dose-dependent-effect; Activity (Trypanosoma cruzi [28]): Dose-dependent-effect
COc1ccc(-c2cs/c(=N/N=C(\C)c3cccnc3)[nH]2)cc1	0.3 µM	19.4 µM	0.3 µM	Dose-dependent-effect	Active	inactive	64.7	Active	0.1	174 µM	inactive	Active	2.2	Non-toxic	0.2	Non-toxic	Dose-dependent-effect	7.7 µM	92.6 µM	Dose-dependent-effect	IC50 (Leishmania amazonensis [12]): Not_active; Activity [23]: Non-toxic; CC50 at 48 h [24]: 16.6 µM; Activity (Trypanosoma cruzi [25]): Dose-dependent-effect; Activity [26]: Non-toxic; Activity [9]: Toxic; Activity (Trypanosoma cruzi [27]): Dose-dependent-effect; Activity (Trypanosoma cruzi [28]): Dose-dependent-effect
